Results: US9181305B2, “Exendin-4 peptide analogues” (SANOFI, priority 2012, dated 2015)
*1 amine or outer side, *2 acyl side, *3 side chain or, on linkers, in order; H or OH if unused. Where a SMILES comes first, the peptide text is derived from it. Side-chain parts run from the residue outwards. [ ]: non-standard residue; d: D form. The star is where a group is joined. γGlu = O=C(O)[C@H](CCC(=O)[*:2])N[*:1]; Palmitoyl = CCCCCCCCCCCCCCCC(=O)*; Cha = N[C@@H](CC1CCCCC1)C(=O)O; Orn = NCCC[C@H](N)C(=O)O; Aib = CC(C)(N)C(=O)O; βAla = NCCC(=O)O

Molecular target: T1, human GLP-1 receptor (hGLP-1 R) (Homo sapiens, UniProt P43220)
T1 construct: expressed in transfected cells; host or cells: HEK-293
Assay: cAMP response (HTRF) of HEK-293 cells stably expressing human GLP-1 receptor
Type: cell-based
Settings: HEK-293 cells expressing human GLP-1 receptor, cAMP formation
Method: cAMP content of cells was determined using a kit from Cisbio Corp. (cat. no. 62AM4PEC) based on HTRF (Homogenous Time Resolved Fluorescence). For preparation, cells were split into T175 culture flasks and grown overnight to near confluency in medium (DMEM/10% FBS). Medium was then removed and cells washed with PBS lacking calcium and magnesium, followed by proteinase treatment with accutase (Sigma-Aldrich cat. no. A6964). Detached cells were washed and resuspended in assay buffer (1×HBSS; 20 mM HEPES, 0.1% BSA, 2 mM IBMX) and cellular density determined. […] For measurement, 25 μl of test compound in assay buffer was added to the wells, followed by incubation for 30 minutes at room temperature.

T1 sequence (P43220 24-463): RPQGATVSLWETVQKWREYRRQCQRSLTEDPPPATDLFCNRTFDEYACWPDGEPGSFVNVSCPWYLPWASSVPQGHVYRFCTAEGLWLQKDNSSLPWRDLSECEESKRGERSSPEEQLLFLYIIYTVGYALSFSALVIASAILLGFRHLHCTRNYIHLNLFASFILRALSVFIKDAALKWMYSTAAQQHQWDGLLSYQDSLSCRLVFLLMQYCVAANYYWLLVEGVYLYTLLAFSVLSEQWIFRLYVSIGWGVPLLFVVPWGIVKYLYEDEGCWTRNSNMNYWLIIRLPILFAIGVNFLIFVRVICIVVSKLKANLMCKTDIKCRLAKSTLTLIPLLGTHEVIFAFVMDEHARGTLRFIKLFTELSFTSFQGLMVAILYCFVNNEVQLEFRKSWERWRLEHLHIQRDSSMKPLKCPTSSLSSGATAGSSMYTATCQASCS

CCCCCCCCCCCCCCCC(=O)N[C@@H](CCC(=O)NCCCC[C@H](NC(=O)[C@H](CO)NC(=O)[C@@H]1CCCN1C(=O)[C@@H]1CCCN1C(=O)[C@@H]1CCCN1C(=O)[C@H](C)NC(=O)CNC(=O)[C@H](CO)NC(=O)[C@H](CO)NC(=O)[C@@H]1CCCN1C(=O)CNC(=O)CNC(=O)[C@H](CC(N)=O)NC(=O)[C@H](CCCCN)NC(=O)[C@H](CC(C)C)NC(=O)[C@H](Cc1c[nH]c2ccccc12)NC(=O)[C@H](CCC(=O)O)NC(=O)[C@@H](NC(=O)[C@H](Cc1ccccc1)NC(=O)[C@H](CC(=O)O)NC(=O)[C@H](CCC(N)=O)NC(=O)[C@H](C)NC(=O)[C@H](CCCNC(=N)N)NC(=O)[C@H](CCCNC(=N)N)NC(=O)[C@H](CCCCN)NC(=O)[C@H](CC(=O)O)NC(=O)[C@H](CCSC)NC(=O)[C@H](CCC(N)=O)NC(=O)[C@H](CCCCN)NC(=O)[C@H](CO)NC(=O)[C@H](CC(C)C)NC(=O)[C@H](CC(=O)O)NC(=O)[C@H](CO)NC(=O)[C@@H](NC(=O)[C@H](Cc1ccccc1)NC(=O)[C@@H](NC(=O)CNC(=O)[C@H](CCC(N)=O)NC(=O)[C@@H](CO)NC(=O)[C@@H](N)Cc1c[nH]cn1)[C@@H](C)O)[C@@H](C)O)[C@@H](C)CC)C(N)=O)C(=O)O [(69)] (H-H[dS]QGTFTSDLSKQMDKRRAQDFIEWLKNGGPSSGAPPPSK([γGlu-Palmitoyl])-NH2) and CCCCCCCCCCCCCCCC(=O)N[C@@H](CCC(=O)NCCC[C@H](NC(=O)[C@H](CO)NC(=O)[C@@H]1CCCN1C(=O)[C@@H]1CCCN1C(=O)[C@@H]1CCCN1C(=O)[C@H](C)NC(=O)CNC(=O)[C@H](CO)NC(=O)[C@H](CO)NC(=O)[C@@H]1CCCN1C(=O)CNC(=O)CNC(=O)[C@H](CO)NC(=O)[C@H](CCCCN)NC(=O)[C@H](CC(C)C)NC(=O)[C@H](Cc1c[nH]c2ccccc12)NC(=O)[C@H](CCC(=O)O)NC(=O)[C@@H](NC(=O)[C@H](Cc1ccccc1)NC(=O)[C@H](CC(=O)O)NC(=O)[C@H](CCC(N)=O)NC(=O)[C@H](C)NC(=O)[C@H](CCCNC(=N)N)NC(=O)[C@H](CCCNC(=N)N)NC(=O)[C@H](CO)NC(=O)[C@H](CCC(=O)O)NC(=O)[C@H](CCSC)NC(=O)[C@H](CCC(N)=O)NC(=O)[C@H](CCCCN)NC(=O)[C@H](CO)NC(=O)[C@H](CC(C)C)NC(=O)[C@H](CC(=O)O)NC(=O)[C@H](CO)NC(=O)[C@@H](NC(=O)[C@H](Cc1ccccc1)NC(=O)[C@@H](NC(=O)CNC(=O)[C@H](CCC(N)=O)NC(=O)[C@@H](CO)NC(=O)[C@@H](N)Cc1c[nH]cn1)[C@@H](C)O)[C@@H](C)O)[C@@H](C)CC)C(N)=O)C(=O)O [(88)] (H-H[dS]QGTFTSDLSKQMESRRAQDFIEWLKSGGPSSGAPPPS[Orn]([γGlu-Palmitoyl])-NH2) are within 1.5-fold of each other in EC50: 7.6 pM for the first, 5.1 pM for the second.

Compared with CCCCCCCCCCCCCCCC(=O)N[C@@H](CCC(=O)NCCCC[C@H](NC(=O)[C@H](CO)NC(=O)[C@@H]1CCCN1C(=O)[C@@H]1CCCN1C(=O)[C@@H]1CCCN1C(=O)[C@H](C)NC(=O)CNC(=O)[C@H](CO)NC(=O)[C@H](CO)NC(=O)[C@@H]1CCCN1C(=O)CNC(=O)CNC(=O)C(C)(C)NC(=O)[C@H](CCCCN)NC(=O)[C@H](CC(C)C)NC(=O)[C@H](Cc1c[nH]c2ccccc12)NC(=O)[C@H](CCC(=O)O)NC(=O)[C@@H](NC(=O)[C@H](Cc1ccccc1)NC(=O)[C@H](CC(=O)O)NC(=O)[C@H](CCC(N)=O)NC(=O)[C@H](C)NC(=O)[C@H](CCCNC(=N)N)NC(=O)[C@H](CCCNC(=N)N)NC(=O)[C@H](CO)NC(=O)[C@H](CC(=O)O)NC(=O)[C@H](CCSC)NC(=O)[C@H](CCC(N)=O)NC(=O)[C@H](CCCCN)NC(=O)[C@H](CO)NC(=O)[C@H](CC(C)C)NC(=O)[C@H](CC(=O)O)NC(=O)[C@H](CO)NC(=O)[C@@H](NC(=O)[C@H](Cc1ccccc1)NC(=O)[C@@H](NC(=O)CNC(=O)[C@H](CCC(N)=O)NC(=O)[C@@H](CO)NC(=O)[C@@H](N)Cc1c[nH]cn1)[C@@H](C)O)[C@@H](C)O)[C@@H](C)CC)C(N)=O)C(=O)O [(72)] (H-H[dS]QGTFTSDLSKQMDSRRAQDFIEWLK[Aib]GGPSSGAPPPSK([γGlu-Palmitoyl])-NH2), CCCCCCCCCCCCCCCC(=O)N[C@@H](CCC(=O)NCCCC[C@H](NC(=O)[C@@H]1CCCN1C(=O)[C@@H]1CCCN1C(=O)[C@@H]1CCCN1C(=O)[C@H](C)NC(=O)CNC(=O)[C@H](CO)NC(=O)[C@H](CO)NC(=O)[C@@H]1CCCN1C(=O)CNC(=O)CNC(=O)C(C)(C)NC(=O)[C@H](CCCCN)NC(=O)[C@H](CC(C)C)NC(=O)[C@H](Cc1c[nH]c2ccccc12)NC(=O)[C@H](CCC(=O)O)NC(=O)[C@@H](NC(=O)[C@H](Cc1ccccc1)NC(=O)[C@H](CC(=O)O)NC(=O)[C@H](CCC(N)=O)NC(=O)[C@H](C)NC(=O)[C@H](CCCNC(=N)N)NC(=O)[C@H](CCCNC(=N)N)NC(=O)[C@H](CO)NC(=O)[C@H](CCC(=O)O)NC(=O)[C@H](CCSC)NC(=O)[C@H](CCC(N)=O)NC(=O)[C@H](CCCCN)NC(=O)[C@H](CO)NC(=O)[C@H](CC(C)C)NC(=O)[C@H](CC(=O)O)NC(=O)[C@H](CO)NC(=O)[C@@H](NC(=O)[C@H](Cc1ccccc1)NC(=O)[C@@H](NC(=O)CNC(=O)[C@H](CCC(N)=O)NC(=O)[C@@H](CO)NC(=O)[C@@H](N)Cc1c[nH]cn1)[C@@H](C)O)[C@@H](C)O)[C@@H](C)CC)C(N)=O)C(=O)O [(80)] (H-H[dS]QGTFTSDLSKQMESRRAQDFIEWLK[Aib]GGPSSGAPPPK([γGlu-Palmitoyl])-NH2) is 2.1-fold higher in EC50: 5.2 pM for the first, 10.8 pM for the second. The first is the more potent here.

CCCCCCCCCCCCCCCC(=O)N[C@@H](CCC(=O)NCCCC[C@H](NC(=O)[C@H](CO)NC(=O)[C@@H]1CCCN1C(=O)[C@@H]1CCCN1C(=O)[C@@H]1CCCN1C(=O)[C@H](C)NC(=O)CNC(=O)[C@H](CO)NC(=O)[C@H](CO)NC(=O)[C@@H]1CCCN1C(=O)CNC(=O)CNC(=O)[C@H](CO)NC(=O)[C@H](CCCCN)NC(=O)[C@H](CC(C)C)NC(=O)[C@H](Cc1c[nH]c2ccccc12)NC(=O)[C@H](CCC(=O)O)NC(=O)[C@@H](NC(=O)[C@H](Cc1ccccc1)NC(=O)[C@H](CC(C)C)NC(=O)[C@H](CCCNC(=N)N)NC(=O)[C@H](C)NC(=O)[C@H](CCCNC(=N)N)NC(=O)[C@H](CCCNC(=N)N)NC(=O)[C@H](CO)NC(=O)[C@H](CCC(=O)O)NC(=O)[C@H](CCSC)NC(=O)[C@H](CCC(N)=O)NC(=O)[C@H](CCCCN)NC(=O)[C@H](CO)NC(=O)[C@H](CC(C)C)NC(=O)[C@H](CC(=O)O)NC(=O)[C@H](CO)NC(=O)[C@@H](NC(=O)[C@H](Cc1ccccc1)NC(=O)[C@@H](NC(=O)CNC(=O)[C@H](CCC(N)=O)NC(=O)[C@@H](CO)NC(=O)[C@@H](N)Cc1c[nH]cn1)[C@@H](C)O)[C@@H](C)O)[C@@H](C)CC)C(N)=O)C(=O)O [(91)] (H-H[dS]QGTFTSDLSKQMESRRARLFIEWLKSGGPSSGAPPPSK([γGlu-Palmitoyl])-NH2) and CCCCCCCCCCCCCCCC(=O)NCCC(=O)NCCC(=O)NCCCC[C@H](NC(=O)[C@H](CO)NC(=O)[C@@H]1CCCN1C(=O)[C@@H]1CCCN1C(=O)[C@@H]1CCCN1C(=O)[C@H](C)NC(=O)CNC(=O)[C@H](CO)NC(=O)[C@H](CO)NC(=O)[C@@H]1CCCN1C(=O)CNC(=O)CNC(=O)[C@H](CO)NC(=O)[C@H](CCCCN)NC(=O)[C@H](CC(C)C)NC(=O)[C@H](Cc1c[nH]c2ccccc12)NC(=O)[C@H](CCC(=O)O)NC(=O)[C@@H](NC(=O)[C@H](Cc1ccccc1)NC(=O)[C@H](CC(=O)O)NC(=O)[C@H](CCC(N)=O)NC(=O)[C@H](C)NC(=O)[C@H](CCCNC(=N)N)NC(=O)[C@H](CCCNC(=N)N)NC(=O)[C@H](CO)NC(=O)[C@H](CCC(=O)O)NC(=O)[C@H](CCSC)NC(=O)[C@H](CCC(N)=O)NC(=O)[C@H](CCCCN)NC(=O)[C@H](CO)NC(=O)[C@H](CC(C)C)NC(=O)[C@H](CC(=O)O)NC(=O)[C@H](CO)NC(=O)[C@@H](NC(=O)[C@H](Cc1ccccc1)NC(=O)[C@@H](NC(=O)CNC(=O)[C@H](CCC(N)=O)NC(=O)[C@@H](CO)NC(=O)[C@@H](N)Cc1c[nH]cn1)[C@@H](C)O)[C@@H](C)O)[C@@H](C)CC)C(N)=O [(98)] (H-H[dS]QGTFTSDLSKQMESRRAQDFIEWLKSGGPSSGAPPPSK([βAla-βAla-Palmitoyl])-NH2) are within 1.5-fold of each other in EC50: 6.7 pM for the first, 5.1 pM for the second.

Work on CCCCCCCCCCCCCCCC(=O)N[C@@H](CCC(=O)NCCCC[C@H](NC(=O)[C@H](CO)NC(=O)[C@@H]1CCCN1C(=O)[C@@H]1CCCN1C(=O)[C@@H]1CCCN1C(=O)[C@H](C)NC(=O)CNC(=O)[C@H](CO)NC(=O)[C@H](CO)NC(=O)[C@@H]1CCCN1C(=O)CNC(=O)CNC(=O)[C@H](C)NC(=O)[C@H](CCCCN)NC(=O)[C@H](CC(C)C)NC(=O)[C@H](Cc1c[nH]c2ccccc12)NC(=O)[C@H](CCC(=O)O)NC(=O)[C@@H](NC(=O)[C@H](Cc1ccccc1)NC(=O)[C@H](CC(=O)O)NC(=O)[C@H](CCC(N)=O)NC(=O)[C@H](C)NC(=O)[C@H](CCCNC(=N)N)NC(=O)[C@H](CCCNC(=N)N)NC(=O)[C@H](CO)NC(=O)[C@H](CCC(=O)O)NC(=O)[C@H](CC1CCCCC1)NC(=O)[C@H](CCC(N)=O)NC(=O)[C@H](CCCCN)NC(=O)[C@H](CO)NC(=O)[C@H](CC(C)C)NC(=O)[C@H](CC(=O)O)NC(=O)[C@H](CO)NC(=O)[C@@H](NC(=O)[C@H](Cc1ccccc1)NC(=O)[C@@H](NC(=O)CNC(=O)[C@H](CCC(N)=O)NC(=O)[C@@H](CO)NC(=O)[C@@H](N)Cc1c[nH]cn1)[C@@H](C)O)[C@@H](C)O)[C@@H](C)CC)C(N)=O)C(=O)O [(95)] (H-H[dS]QGTFTSDLSKQ[Cha]ESRRAQDFIEWLKAGGPSSGAPPPSK([γGlu-Palmitoyl])-NH2) yielded an EC50 of 6.7 pM.
